Blank lines part the entries; values can stand above or below the compound they belong to.
Experiments:
human recombinant GCS = target: T1, human recombinant GCS (Homo sapiens, UniProt Q16739); test: Human GCS inhibition, recombinant enzyme expressed in insect cells; assay type: biochemical
T1 construct: made in house; host or cells: insect cells
T1 sequence (Q16739 1-394): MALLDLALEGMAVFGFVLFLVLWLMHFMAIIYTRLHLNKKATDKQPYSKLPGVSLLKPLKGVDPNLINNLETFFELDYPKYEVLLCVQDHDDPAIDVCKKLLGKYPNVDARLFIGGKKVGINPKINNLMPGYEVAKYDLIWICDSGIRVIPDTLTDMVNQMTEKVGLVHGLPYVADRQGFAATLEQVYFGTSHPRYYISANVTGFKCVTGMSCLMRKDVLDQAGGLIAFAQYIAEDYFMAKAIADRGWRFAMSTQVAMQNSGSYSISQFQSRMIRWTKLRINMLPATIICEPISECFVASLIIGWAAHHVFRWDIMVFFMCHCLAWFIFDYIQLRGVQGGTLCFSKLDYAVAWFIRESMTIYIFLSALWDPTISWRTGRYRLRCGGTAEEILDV

[1] = target: Porcine intestinal lactase (Sus scrofa, UniProt F1S0D7); test: Porcine intestinal lactase inhibition; assay type: biochemical; conditions: read-out: Porcine intestinal lactase (Ki μM)
glycolipid biosynthesis = conditions: as disclosed in EP-A-0698012; cited from earlier work
Human β-galactosidase = target: T2, Human β-galactosidase (Homo sapiens, UniProt P16278); test: Human β-galactosidase assay; assay type: biochemical
T2 sequence (P16278 29-677): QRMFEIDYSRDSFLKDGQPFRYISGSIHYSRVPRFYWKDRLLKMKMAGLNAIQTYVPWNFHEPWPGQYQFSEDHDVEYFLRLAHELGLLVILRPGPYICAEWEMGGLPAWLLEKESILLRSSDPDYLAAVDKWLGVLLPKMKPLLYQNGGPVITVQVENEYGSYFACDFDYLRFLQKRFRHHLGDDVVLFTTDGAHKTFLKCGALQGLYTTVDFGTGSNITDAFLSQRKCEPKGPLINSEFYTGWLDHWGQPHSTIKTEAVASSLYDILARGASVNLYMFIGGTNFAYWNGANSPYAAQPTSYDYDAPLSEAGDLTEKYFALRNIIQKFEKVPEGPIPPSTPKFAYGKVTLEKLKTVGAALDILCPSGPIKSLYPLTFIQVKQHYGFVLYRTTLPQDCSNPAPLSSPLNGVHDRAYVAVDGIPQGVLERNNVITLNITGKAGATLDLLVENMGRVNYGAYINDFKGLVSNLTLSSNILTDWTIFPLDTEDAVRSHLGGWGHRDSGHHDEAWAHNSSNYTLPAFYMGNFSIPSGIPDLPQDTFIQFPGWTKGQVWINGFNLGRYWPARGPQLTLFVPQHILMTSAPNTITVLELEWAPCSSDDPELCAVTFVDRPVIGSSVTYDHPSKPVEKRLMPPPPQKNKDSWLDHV
Method: The glucosidase assays were performed as described (Biochemical Genetics, A Laboratory Manual, Oxford University Press) except that p-nitrophenyl linked substrates were used instead of methylumbelliferone linked substrates.

[2] = target: T3, Mouse ceramide β-galactosidase (Mus musculus, UniProt P54818); test: Mouse ceramide β-galactosidase inhibition; assay type: biochemical
T3 sequence (P54818 43-684): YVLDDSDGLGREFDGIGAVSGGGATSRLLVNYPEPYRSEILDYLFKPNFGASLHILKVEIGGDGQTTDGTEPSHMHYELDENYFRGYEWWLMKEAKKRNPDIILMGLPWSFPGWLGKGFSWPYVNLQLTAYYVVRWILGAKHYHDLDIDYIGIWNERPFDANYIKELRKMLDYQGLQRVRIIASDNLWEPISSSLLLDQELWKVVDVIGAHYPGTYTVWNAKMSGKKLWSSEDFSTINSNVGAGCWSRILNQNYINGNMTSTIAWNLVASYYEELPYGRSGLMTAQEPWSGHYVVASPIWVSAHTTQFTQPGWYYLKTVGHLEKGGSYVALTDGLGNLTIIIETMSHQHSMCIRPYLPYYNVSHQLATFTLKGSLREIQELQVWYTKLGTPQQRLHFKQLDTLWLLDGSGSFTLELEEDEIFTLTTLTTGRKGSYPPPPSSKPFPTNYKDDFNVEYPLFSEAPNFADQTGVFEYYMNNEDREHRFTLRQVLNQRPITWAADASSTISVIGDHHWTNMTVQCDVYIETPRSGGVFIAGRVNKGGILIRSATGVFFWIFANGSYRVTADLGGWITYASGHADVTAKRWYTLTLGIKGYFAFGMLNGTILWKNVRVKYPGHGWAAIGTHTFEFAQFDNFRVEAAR

[3] = target: Jack bean β-galactosidase; test: Jack bean β-galactosidase inhibition; assay type: biochemical
Human α-glucosidase = Human α-glucosidase assay, p-nitrophenyl linked substrates; assay type: biochemical

Chain of Porcine intestinal lactase (F1S0D7 840-1898): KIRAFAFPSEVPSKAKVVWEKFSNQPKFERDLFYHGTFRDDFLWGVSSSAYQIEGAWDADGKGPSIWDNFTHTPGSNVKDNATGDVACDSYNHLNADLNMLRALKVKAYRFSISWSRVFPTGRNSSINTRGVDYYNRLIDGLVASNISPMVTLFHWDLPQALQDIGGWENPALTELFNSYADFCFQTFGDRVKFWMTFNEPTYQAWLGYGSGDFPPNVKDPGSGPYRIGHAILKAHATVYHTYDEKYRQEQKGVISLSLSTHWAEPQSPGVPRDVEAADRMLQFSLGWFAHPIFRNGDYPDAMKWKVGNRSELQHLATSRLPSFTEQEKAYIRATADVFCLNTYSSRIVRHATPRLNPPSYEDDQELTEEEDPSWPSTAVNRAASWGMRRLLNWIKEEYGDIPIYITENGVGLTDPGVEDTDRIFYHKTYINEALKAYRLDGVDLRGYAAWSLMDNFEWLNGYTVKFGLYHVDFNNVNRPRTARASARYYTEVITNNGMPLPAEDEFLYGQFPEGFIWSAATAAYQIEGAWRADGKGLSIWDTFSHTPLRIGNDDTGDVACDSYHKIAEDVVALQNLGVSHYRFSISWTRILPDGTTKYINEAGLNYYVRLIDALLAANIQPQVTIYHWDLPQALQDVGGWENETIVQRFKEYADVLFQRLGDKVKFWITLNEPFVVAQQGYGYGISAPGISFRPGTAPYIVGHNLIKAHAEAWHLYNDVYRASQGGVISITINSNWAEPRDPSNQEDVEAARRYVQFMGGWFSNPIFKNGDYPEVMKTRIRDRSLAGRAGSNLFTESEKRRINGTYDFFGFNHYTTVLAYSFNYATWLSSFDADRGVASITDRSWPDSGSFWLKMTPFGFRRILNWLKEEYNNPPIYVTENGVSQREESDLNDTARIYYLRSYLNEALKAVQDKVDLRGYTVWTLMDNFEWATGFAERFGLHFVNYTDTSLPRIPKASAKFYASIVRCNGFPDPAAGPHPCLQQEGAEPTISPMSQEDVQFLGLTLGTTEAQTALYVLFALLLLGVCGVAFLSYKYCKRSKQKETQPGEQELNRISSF

Structure (SMILES): CCCCCN1CC(O)C(O)C(O)C1CO [Example 3, 3,4,5-Piperidinetriol, 1-pentyl-2-(hydroxymethyl)-, (2S,3R,4R,5S)]
IC50 (human recombinant GCS): 4 µM

Structure (SMILES): CCCCN1CC(O)C(O)C(O)C1CO [Example 5, 3,4,5-Piperidinetriol, 1-butyl-2-hydroxymethyl)-, (2S,3S,4R,5S)]
Ki [1]: 8000 µM

Structure (SMILES): CCCCN1C[C@@H](O)[C@H](O)[C@H](O)[C@@H]1C [NB-DFJ]
inhibition of glycolipid biosynthesis (glycolipid biosynthesis): do not act as inhibitors

Structure (SMILES): CCCCN1C[C@H](O)[C@@H](O)[C@@H](O)[C@H]1CO [NB-DGJ, N-butyldeoxygalactonojirimycin]
Ki (Human β-galactosidase): 40 µM
IC50 [2]: 370 µM
Ki [1]: 85 µM
IC50 [3]: 3.4 µM

Structure (SMILES): CCCCN1C[C@@H](O)[C@@H](O)[C@H](O)[C@H]1CO [NB-DMJ]
inhibition of glycolipid biosynthesis (glycolipid biosynthesis): do not act as inhibitors

IC50 (Human α-glucosidase): < 20 µM
Structure (SMILES): CCCCN1C[C@H](O)[C@@H](O)[C@H](O)[C@H]1CO [NB-DNJ, N-butyldeoxynojirimycin]

Structure (SMILES): CCCCN1C[C@H](NC(C)=O)[C@@H](O)[C@H](O)[C@H]1CO [NB-NAG]
inhibition of glycolipid biosynthesis (glycolipid biosynthesis): do not act as inhibitors
